Laboratory results published in patent publication US9999616B2 (ZENITH EPIGENETICS LTD., priority 2013, dated 2018).

Legend:
[1] = target: Brd4 bromodomain 1 (BRD4(1)) (Homo sapiens, UniProt O60885); assay: Inhibition of tetra-acetylated histone H4 binding to Brd4 bromodomain 1, measured by FRET (HTRF); parameters: made in house; host or cells: E. coli BL21(DE3); conditions: 2 h at room temperature
In short: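 N-terminally His-tagged bromodomain (200 nM), expressed in E. coli and purified by Ni affinity and size exclusion, was incubated with biotinylated tetra-acetylated H4 peptide (25-50 nM), Eu-cryptate streptavidin and XL665 anti-His in HEPES pH 7.4 buffer with 0.2% DMSO. Reactions ran 2 h at room temperature. IC50 came from the 665/620 nm fluorescence decrease.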

hIL-6 mRNA = assay: Inhibition of hIL-6 mRNA transcription in LPS-stimulated U937 macrophages; format: cell-based, Human; conditions: Homo sapiens, U-937, PMA-differentiated U937 cells, 1 h pretreatment, LPS 3 h, read-out: IL-6 activity
In short: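 PMA-differentiated U937 macrophages (60 ng/mL PMA, 3 days) pretreated 1 h with compound in 0.1% DMSO, then stimulated with 1 ug/mL E. coli LPS for 3 h at 37° C. IL-6 mRNA quantified by one-step TaqMan qRT-PCR, normalized to cyclophilin; fold expression relative to control, triplicate wells.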

MV4-11 cells = assay: In vivo efficacy in athymic nude mouse acute myeloid leukemia xenograft model using MV4-11 cells; conditions: athymic nude mouse AML xenograft (MV4-11), oral dosing
Procedure: MV4-11 cells (ATCC) were grown under standard cell culture conditions and (NCr) nu/nu fisol strain of female mice age 6-7 weeks were injected with 5×10^6 cells/animal in 100 μL PBS+100 μL Matrigel in the lower left abdominal flank. By approximately day 18-21 after MV4-11 cells injection, mice were randomized based on tumor volume (L×W×H)/2) of average ˜100-300 mm^3. Mice were dosed orally with compound at 5 to 120 mg/kg b.i.d and/or q.d. on a continuous dosing schedule and at 2.5 to 85 mg/kg q.d. on a 5 day on 2 day off, 100 mg/kg q.d. on a 4 day on and 3 day off, 135 mg/kg q.d. on a 3 day on and 4 day off, 180 mg/kg on a 2 day on and 5 day off and 240 mg/kg on a 1 day on and 6 days off dosing schedules in EA006 formulation at 10 mL/kg body weight dose volume. Tumor measurements were taken with electronic micro calipers and body weights measured on alternate days beginning from dosing period. The average tumor volumes, percent Tumor Growth Inhibition (TGI) and % change in body weights were compared relative to Vehicle control animals. The means, statistical analysis and the comparison between groups were calculated using Student's t-test in Excel.

hApoA-1 mRNA = assay: Up-regulation of hApoA-1 mRNA transcription in Huh7 cells; format: cell-based; conditions: Homo sapiens, Huh-7, EC170 of hApoA-1 mRNA up-regulation, 48 h, read-out: ApoA-1 activity
Procedure: Huh7 cells (2.5×10^5 per well) were plated in a 96-well plate using 100 μL DMEM per well, (Gibco DMEM supplemented with penicillin/streptomycin and 10% FBS), 72 h before the addition of the compound. The cells are treated with increasing concentrations of the compound or DMSO (0.1%), and incubated at 37° C., 5% CO2 for 48 h. Spent media was removed from the Huh-7 cells and placed on ice for immediate use with the “LDH cytotoxicity assay Kit II” from Abcam. The cells remaining in the plate were rinsed with 100 μL PBS. Cells were harvested using the mRNA Catcher PLUS kit according to manufacturer's instructions. The eluted mRNA was then used in a one-step quantitative real-time PCR reaction, using components of the RNA UltraSense™ One-Step Kit (Life Technologies) together with Applied Biosystems TaqMan® primer-probes for hApoA-1 and Cyclophilin. Real-time PCR plates were run on a ViiA™7 real time PCR machine (Applied Biosystems), data was analyzed, normalizing the Ct values for hApoA-1 to an internal control, prior to determining the fold induction of each unknown sample, relative to the control.

Cc1nc2c(-c3c(C)noc3C)cc(-c3c(C)noc3C)cc2[nH]1 [Example Compound 6, 4,4′-(2-methyl-1H-benzo[d]imidazole-4,6-diyl)bis(3,5-dimethylisoxazole)]
IC50 [1]: ≤ 300 nM | IC50 (hIL-6 mRNA): 300 to 3000 nM | In vivo activity (MV4-11 cells): Active

Cc1noc(C)c1-c1cc(-c2c(C)noc2C)c2nc[nH]c2c1 [Example Compound 1, 4,4′-(1H-benzo[d]imidazole-4,6-diyl)bis(3,5-dimethylisoxazole)]
EC170 (hApoA-1 mRNA): 0.3 to 3 µM | IC50 [1]: ≤ 300 nM | IC50 (hIL-6 mRNA): ≤ 300 nM | In vivo activity (MV4-11 cells): Active

Cc1nc2c(-c3c(C)nn(C)c3C)cc(-c3c(C)noc3C)cc2[nH]1 [Example Compound 49, 3,5-dimethyl-4-(2-methyl-4-(1,3,5-trimethyl-1H-pyrazol-4-yl)-1H-benzo[d]imidazol-6-yl)isoxazole]
EC170 (hApoA-1 mRNA): ≤ 0.3 µM | IC50 [1]: ≤ 300 nM | IC50 (hIL-6 mRNA): ≤ 300 nM | In vivo activity (MV4-11 cells): Active

Cc1nc2c(-c3cccnc3C)cc(-c3c(C)noc3C)cc2[nH]1 [Example Compound 41, 3,5-dimethyl-4-(2-methyl-4-(2-methylpyridin-3-yl)-1H-benzo[d]imidazol-6-yl)isoxazole]
EC170 (hApoA-1 mRNA): ≤ 0.3 µM | IC50 [1]: ≤ 300 nM | IC50 (hIL-6 mRNA): ≤ 300 nM | In vivo activity (MV4-11 cells): Active
